# System: 282377-053-R-J1-PDC complex spheroid viability
# Test: Anticancer human tumor 282377-053-R-J1-PDC patient-derived colon adenocarcinoma cell line growth inhibition [POLQ]
# Settings: for IC50: curve of first compound; for viability, T/C: stronger effect = lower value
# Outline: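 Complex spheroid viability model combining PDC tumour cells with endothelial (HUVEC) and MSC stromal cells. Novobiocin, ART-558 or RP6685 were tested singly and in combination with standard and investigational anticancer drugs. Each was titrated in half-log steps from near clinical Cmax, or from 10 microM where Cmax was unknown.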
# [1] = second compound 0.0316 µM, first compound 0.00316 µM
# [2] = second compound 0.0316 µM, first compound 0.01 µM
# [3] = second compound 0.0316 µM, first compound 0.0316 µM
# [4] = second compound 0.0316 µM, first compound 0.1 µM
# [5] = second compound 0.0316 µM, first compound 0.316 µM
# [6] = second compound 0.0316 µM, first compound 1 µM
# [7] = second compound 0.1 µM, first compound 0.00316 µM
# [8] = second compound 0.1 µM, first compound 0.01 µM
# [9] = second compound 0.1 µM, first compound 0.0316 µM
# [10] = second compound 0.1 µM, first compound 0.1 µM
# [11] = second compound 0.1 µM, first compound 0.316 µM
# [12] = second compound 0.1 µM, first compound 1 µM
# [13] = second compound 0.316 µM, first compound 0.00316 µM
# [14] = second compound 0.316 µM, first compound 0.01 µM
# [15] = second compound 0.316 µM, first compound 0.0316 µM
# [16] = second compound 0.316 µM, first compound 0.1 µM
# [17] = second compound 0.316 µM, first compound 0.316 µM
# [18] = second compound 0.316 µM, first compound 1 µM
# [19] = second compound 1 µM, first compound 0.00316 µM
# [20] = second compound 1 µM, first compound 0.01 µM
# [21] = second compound 1 µM, first compound 0.0316 µM
# [22] = second compound 1 µM, first compound 0.1 µM
# [23] = second compound 1 µM, first compound 0.316 µM
# [24] = second compound 1 µM, first compound 1 µM
# [25] = second compound 3.16 µM, first compound 0.00316 µM
# [26] = second compound 3.16 µM, first compound 0.01 µM
# [27] = second compound 3.16 µM, first compound 0.0316 µM
# [28] = second compound 3.16 µM, first compound 0.1 µM
# [29] = second compound 3.16 µM, first compound 0.316 µM
# [30] = second compound 3.16 µM, first compound 1 µM
# [31] = second compound 10 µM, first compound 0.00316 µM
# [32] = second compound 10 µM, first compound 0.01 µM
# [33] = second compound 10 µM, first compound 0.0316 µM
# [34] = second compound 10 µM, first compound 0.1 µM
# [35] = second compound 10 µM, first compound 0.316 µM
# [36] = second compound 10 µM, first compound 1 µM
# 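Note: spheroids exposed to compounds for seven days.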
# 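Throughout, for viability, T/C: 100% = DMSO vehicle control viability.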
structure (smiles),measurement,setting,value
C=CCn1c(=O)c2cnc(Nc3ccc(N4CCN(C)CC4)cc3)nc2n1-c1cccc(C(C)(C)O)n1 + Cc1cccc(N(C)C(=O)C2C(O)CCN2c2nc(C)cc(C(F)(F)F)c2C#N)c1,IC50,second compound 0.0316 µM,> 1000 nM
same,IC50,second compound 0.1 µM,> 1000 nM
same,IC50,second compound 0.316 µM,> 1000 nM
same,IC50,second compound 1 µM,> 1000 nM
same,IC50,second compound 3.16 µM,> 1000 nM
same,IC50,second compound 10 µM,> 1000 nM
same,"viability, T/C",[1],106%
same,"viability, T/C",[2],107%
same,"viability, T/C",[3],107%
same,"viability, T/C",[4],96.9%
same,"viability, T/C",[5],93.6%
same,"viability, T/C",[6],76.6%
same,"viability, T/C",[7],95.6%
same,"viability, T/C",[8],110%
same,"viability, T/C",[9],94.3%
same,"viability, T/C",[10],102%
same,"viability, T/C",[11],92.2%
same,"viability, T/C",[12],68.4%
same,"viability, T/C",[13],107%
same,"viability, T/C",[14],103%
same,"viability, T/C",[15],96.8%
same,"viability, T/C",[16],91.1%
same,"viability, T/C",[17],90.6%
same,"viability, T/C",[18],71.8%
same,"viability, T/C",[19],109%
same,"viability, T/C",[20],97%
same,"viability, T/C",[21],94.8%
same,"viability, T/C",[22],89.1%
same,"viability, T/C",[23],89.2%
same,"viability, T/C",[24],73%
same,"viability, T/C",[25],104%
same,"viability, T/C",[26],102%
same,"viability, T/C",[27],102%
same,"viability, T/C",[28],93.2%
same,"viability, T/C",[29],98.3%
same,"viability, T/C",[30],70.2%
same,"viability, T/C",[31],99.9%
same,"viability, T/C",[32],103%
same,"viability, T/C",[33],93.7%
same,"viability, T/C",[34],98.9%
same,"viability, T/C",[35],94.3%
same,"viability, T/C",[36],85.4%
CC[C@@]1(O)C(=O)OCc2c1cc1n(c2=O)Cc2cc3c(CN(C)C)c(O)ccc3nc2-1 + Cc1cccc(N(C)C(=O)C2C(O)CCN2c2nc(C)cc(C(F)(F)F)c2C#N)c1,IC50,second compound 0.0316 µM,> 100 nM
same,IC50,second compound 0.1 µM,> 100 nM
same,IC50,second compound 0.316 µM,> 100 nM
same,IC50,second compound 1 µM,> 100 nM
same,IC50,second compound 3.16 µM,> 100 nM
same,IC50,second compound 10 µM,> 100 nM
same,"viability, T/C","second compound 0.0316 µM, first compound 0.000316 µM",97.1%
same,"viability, T/C","second compound 0.0316 µM, first compound 0.001 µM",107%
same,"viability, T/C",[1],118%
same,"viability, T/C",[2],111%
same,"viability, T/C",[3],94.4%
same,"viability, T/C",[4],76.1%
same,"viability, T/C","second compound 0.1 µM, first compound 0.000316 µM",98.3%
same,"viability, T/C","second compound 0.1 µM, first compound 0.001 µM",108%
same,"viability, T/C",[7],86.1%
same,"viability, T/C",[8],109%
same,"viability, T/C",[9],87.6%
same,"viability, T/C",[10],88%
same,"viability, T/C","second compound 0.316 µM, first compound 0.000316 µM",90.6%
same,"viability, T/C","second compound 0.316 µM, first compound 0.001 µM",97.8%
same,"viability, T/C",[13],101%
same,"viability, T/C",[14],105%
same,"viability, T/C",[15],107%
same,"viability, T/C",[16],77.2%
same,"viability, T/C","second compound 1 µM, first compound 0.000316 µM",93%
same,"viability, T/C","second compound 1 µM, first compound 0.001 µM",92.6%
same,"viability, T/C",[19],124%
same,"viability, T/C",[20],105%
same,"viability, T/C",[21],124%
same,"viability, T/C",[22],71.9%
same,"viability, T/C","second compound 3.16 µM, first compound 0.000316 µM",97.5%
same,"viability, T/C","second compound 3.16 µM, first compound 0.001 µM",102%
same,"viability, T/C",[25],98.5%
same,"viability, T/C",[26],94.6%
same,"viability, T/C",[27],101%
same,"viability, T/C",[28],71%
same,"viability, T/C","second compound 10 µM, first compound 0.000316 µM",87.5%
same,"viability, T/C","second compound 10 µM, first compound 0.001 µM",93.9%
same,"viability, T/C",[31],92.3%
same,"viability, T/C",[32],81.2%
same,"viability, T/C",[33],96.2%
same,"viability, T/C",[34],65.2%
CCc1c2c(nc3ccc(O)cc13)-c1cc3c(c(=O)n1C2)COC(=O)[C@]3(O)CC + Cc1cccc(N(C)C(=O)C2C(O)CCN2c2nc(C)cc(C(F)(F)F)c2C#N)c1,IC50,second compound 0.0316 µM,50.3 nM
same,IC50,second compound 0.1 µM,180 nM
same,IC50,second compound 0.316 µM,71.5 nM
same,IC50,second compound 1 µM,116 nM
same,IC50,second compound 3.16 µM,70.2 nM
same,IC50,second compound 10 µM,57.5 nM
same,"viability, T/C",[1],122%
same,"viability, T/C",[2],76.2%
same,"viability, T/C",[3],51.8%
same,"viability, T/C",[4],49.2%
same,"viability, T/C",[5],40.1%
same,"viability, T/C",[6],23.2%
same,"viability, T/C",[7],97.1%
same,"viability, T/C",[8],81.6%
same,"viability, T/C",[9],72%
same,"viability, T/C",[10],62.4%
same,"viability, T/C",[11],41.5%
same,"viability, T/C",[12],21.8%
same,"viability, T/C",[13],102%
same,"viability, T/C",[14],74.9%
same,"viability, T/C",[15],54.4%
same,"viability, T/C",[16],52%
same,"viability, T/C",[17],41.4%
same,"viability, T/C",[18],25.7%
same,"viability, T/C",[19],110%
same,"viability, T/C",[20],86.8%
same,"viability, T/C",[21],53.5%
same,"viability, T/C",[22],51.6%
same,"viability, T/C",[23],44.8%
same,"viability, T/C",[24],17.2%
same,"viability, T/C",[25],104%
same,"viability, T/C",[26],69.3%
same,"viability, T/C",[27],63.5%
same,"viability, T/C",[28],44.4%
same,"viability, T/C",[29],40.8%
same,"viability, T/C",[30],22.5%
same,"viability, T/C",[31],106%
same,"viability, T/C",[32],87.5%
same,"viability, T/C",[33],49.5%
same,"viability, T/C",[34],42.5%
same,"viability, T/C",[35],37.4%
same,"viability, T/C",[36],16.7%

# Source: PubChem BioAssay AID1963852 (Molecular Pharmacology Branch, DTP, NCI, 2024)
